According to PMC5838106, “Cathelicidin promotes inflammation by enabling binding of self-RNA to cell surface scavenger receptors” (Scientific Reports, 2018):
Where no end group is shown, it is not given here.

Target: T1, SR-A6 (Homo sapiens, UniProt Q9UEW3)
T1 construct: Proximity ligation assay for SR-A6 and U1; endogenous in cells; host or cells: NHEK (primary neonatal human epidermal keratinocytes)
T1 sequence (Q9UEW3 1-520): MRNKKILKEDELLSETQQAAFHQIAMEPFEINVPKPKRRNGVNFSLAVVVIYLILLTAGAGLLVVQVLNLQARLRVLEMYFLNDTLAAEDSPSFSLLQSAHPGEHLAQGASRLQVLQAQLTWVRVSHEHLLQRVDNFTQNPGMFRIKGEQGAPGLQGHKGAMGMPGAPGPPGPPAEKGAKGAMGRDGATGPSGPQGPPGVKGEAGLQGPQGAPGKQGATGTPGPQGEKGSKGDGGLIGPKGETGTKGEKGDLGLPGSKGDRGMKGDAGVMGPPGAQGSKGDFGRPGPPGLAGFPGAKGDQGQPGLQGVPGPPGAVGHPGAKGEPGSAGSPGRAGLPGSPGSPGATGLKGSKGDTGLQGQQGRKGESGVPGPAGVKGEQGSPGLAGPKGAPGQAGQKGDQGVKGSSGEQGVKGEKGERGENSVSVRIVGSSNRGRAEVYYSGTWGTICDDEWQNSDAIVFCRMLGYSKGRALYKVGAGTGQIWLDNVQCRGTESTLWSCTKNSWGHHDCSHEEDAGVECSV
Test: Proximity ligation assay for SR-A6 and U1 RNA
Type: cell-based
Details: NHEKs, peptide 2.5 μM 10 minutes, biotinylated U1 RNA 2.5 μg/mL, 4 °C, 1 hour
Experimental: NHEKs seeded into 8 chamber slides (Thermo Fisher Scientific) were incubated with various combination of U1 RNA, poly(I:C), cathelicidin peptides, and fucoidan for 1 hour at 4 °C allowing binding, but not internalization. Unbound RNA was removed by washing with cold PBS. Cells were fixed with 4% PFA at 4 °C. Blocking buffer (Sigma) was used to prevent nonspecific antibody binding, and cells were incubated with two primary antibodies. […] Fluorescent PLA signals were evaluated using fluorescence microscopy (described above). Signals are counted by Duolink ImageTool software version 1.0.1.2 (Sigma-aldrich). […]
RNA. NHEKs were cultured with various cathelicidin peptides (2.5 µM) for 10 minutes, then with biotinylated U1 RNA (2.5 µg/mL) at 4 °C for 1 hour before physical proximity of SR-A6 and U1 RNA was determined using a fluorescence-based PLA that produces a red fluorescent signal. […] PMA-treated THP1 were cultured with various cathelicidin peptides (3 µM) for 10 minutes, then with biotinylated U1 RNA (2.5 µg/mL) at 4 °C for 1 hour before physical proximity of U1 RNA and scavenger receptors was determined using a fluorescence-based PLA, each count is PLA complexes observed in 5 visual fields. f) NHEKs cultured at 37 °C that were stained immediately after or after 5 […]

| Substance | close association between U1 RNA and SR-A6 (PLA, <40 nm) |
| --- | --- |
| LL37 | enabled close association |
| LLGDFFRKSKEKIGKEFKRIVQRIKDFLRNLVPR [LL34] | enabled close association |
